Experiments:
[1] = system: NCIH727; assay: CellTiter-Glo Reagent cancer cell line proliferation assay, NCIH727; type: cell-based, human; details: Homo sapiens, NCI-H727, 24 h, NCIH727, KRAS(G12V) heterozygous
Description: (§1) The following cancer cell lines were employed: • AsPC-1 human pancreatic adenocarcinoma, homozygous KRAS(G12D), (ATCC, #CRL-1682); A-427 human lung carcinoma, heterozygous KRAS(G12D), (ATCC, #HTB-53); AGS human gastric adenocarcinoma, heterozygous KRAS(G12D), (ATCC, #CRL-1739); GP2D human colon adenocarcinoma, heterozygous KRAS(G12D), (Sigma Aldrich, 95090714); SW1990 human pancreatic adenocarcinoma, homozygous KRAS(G12D), (ATCC, #CRL2172); LU65A human lung giant cell carcinoma, heterozygous KRAS(G12C), (JCRB Cell Bank, #JCRB0054); NCIH727 human lung carcinoid, heterozygous KRAS(G12V), (ATCC, #CRL-5815); MKN1 human gastric adenosquamous carcinoma KRAS (wt), (JCRB Cell Bank, #JCRB0252). Cell lines were cultured according to ATCC, JCRB and Sigma Aldrich recommendations.
(§2) Cells were plated in 96-well tissue culture plates at 4,000 cells/well and incubated at 37° C./5% CO2 for 24 hr in 100 μl of media. 3-fold serial dilutions of each test compound were prepared ranging from 20 μM to 1.02 nM. Cells were then treated with test compounds at various concentrations with a final concentration of 0.5% DMSO/well, and then incubated at 37° C./5% CO2 for 24 hr. 100 μl of CellTiter-Glo® Reagent (Promega Corporation, Madison, WI) was added to each well and processed according manufacturer's protocol. Results were analyzed and IC50-values were calculated in GraphPad 7 software.

[2] = target: T1, KRAS(G12C) (Homo sapiens, UniProt P01116, G12C); assay: KRAS Western Blot Protein Degradation Assay, LU65A; type: cell-based; details: 24 hr; for DC50: read-out: WB data LU65A DC50; for Dmax: read-out: WB data LU65A DMax
T1 construct: LU65A that expresses KRAS(G12C); host or cells: LU65A
Description: as §1
(§3) Cell lines SW1990 and GP2D that express KRAS(G12D), LU65A that expresses KRAS(G12C), and NCIH727 that expresses KRAS(G12V) were seeded in 6- or 12-well tissue culture plates, and after 1 hr, test compounds were added at various concentrations and incubated at 37° C./5% CO2 for 24 hr. Cells were then washed with cold PBS, aspirated and cold RIPA buffer containing a protease/phosphatase inhibitor cocktail was added to lyse cells. After centrifugation, the total protein concentrations of cell lysates were determined using the BCA protein assay. Samples were normalized for equivalent protein concentrations, 5× SDS-PAGE loading buffer added and denatured at 100° C. for 10 min. 20 μl of each sample/well was loaded on a SDS-PAGE gel and electrophoresed for 20 min at 80 V, then 120 V for 1.5 hr. Gels were then electroblotted to nitrocellulose membranes using a wet-transfer method at 250 mA for 2.5 hr. Membranes were incubated with blocking buffer for 1 hr and washed 3 times with TBST for 5 min. Membranes were then incubated with anti-KRAS (Sigma-Aldrich, #SAB1404011) and anti-β-Actin monoclonal antibodies (Cell Signaling Technology, #3700) diluted in blocking buffer at 4° C. overnight per the manufacturer's recommendations. After washing 3 times, blots were incubated with appropriately labeled secondary antibodies for 1 hr at room temperature and washed again. Fluorescence imaging and quantitation was performed using a LI-COR Odyssey. Results was analyzed using GraphPad Prism 7 software. Compound concentrations that induced KRAS degradation (DC50 and DCmax) were calculated using GraphPad Prism 7 software.

[3] = system: MKN1; assay: CellTiter-Glo Reagent cancer cell line proliferation assay, MKN1; type: cell-based; details: Homo sapiens, MKN-1; MKN1, KRAS (wt), 24 hr
Description: as §1, §2

[4] = system: LU65A; assay: CellTiter-Glo Reagent cancer cell line proliferation assay, LU65A; type: cell-based, human; details: Homo sapiens, 24 h, KRAS(G12C) heterozygous
Description: as §1, §2

[5] = target: T2, KRAS(G12V) (Homo sapiens, UniProt P01116, G12V); assay: KRAS Western Blot Protein Degradation Assay, NCIH727; type: cell-based; details: for DC50: 24 hr, read-out: WB data NCIH727 DC50; for Dmax: NCI-H727, 24 hr, read-out: WB data NCIH727 DMax
T2 construct: anti-KRAS Western blot degradation by PROTACs recruiting CRBN or VHL
Description: as §1, §3

[6] = system: GP2D; assay: CellTiter-Glo Reagent cancer cell line proliferation assay, GP2D; type: cell-based; details: Homo sapiens, KRAS(G12D) heterozygous, 24 hr
Description: as §1, §2

[7] = system: AGS; assay: CellTiter-Glo Reagent cancer cell line proliferation assay, AGS; type: cell-based, human; details: Homo sapiens, 24 h, KRAS(G12D) heterozygous
Description: as §1, §2

T2 sequence (P01116 1-188 isoform P01116-2 G12V): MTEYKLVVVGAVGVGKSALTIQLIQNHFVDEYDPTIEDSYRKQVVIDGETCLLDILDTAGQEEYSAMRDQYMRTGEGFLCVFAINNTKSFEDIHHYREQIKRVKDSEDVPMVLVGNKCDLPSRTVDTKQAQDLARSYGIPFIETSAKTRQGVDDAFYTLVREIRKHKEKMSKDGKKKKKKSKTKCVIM
T1 sequence (P01116 1-185 isoform P01116-2 G12C limits assumed): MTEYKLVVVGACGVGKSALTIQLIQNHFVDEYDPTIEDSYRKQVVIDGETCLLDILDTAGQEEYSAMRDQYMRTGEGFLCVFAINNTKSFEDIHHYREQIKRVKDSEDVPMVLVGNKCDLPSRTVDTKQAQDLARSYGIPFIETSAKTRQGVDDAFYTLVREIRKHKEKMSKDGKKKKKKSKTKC

SMILES | IC50 [1] | DC50 [2] | Dmax [2] | IC50 [3] | IC50 [4] | DC50 [5] | Dmax [5] | IC50 [6] | IC50 [7]
C#Cc1c(F)ccc2cc(O)cc(-c3ncc4c(N5CCN(C(=O)C=C)[C@@H](CC#N)C5)nc(OCC5(CN6CCN(CC7CCN(c8ccc9c(c8)CN(C8CCC(=O)NC8=O)C9=O)CC7)CC6)CC5)nc4c3F)c12 (stereo partly shown) [Compound 79] | > 1000 nM | < 100 nM | > 50% | > 1000 nM | < 100 nM | – | – | – | –
C#Cc1c(F)ccc2cc(O)cc(-c3ncc4c(N5CC6CCC(C5)N6C(=O)CC#N)nc(OCC5(CN6CCN(CC7CCN(c8ccc9c(c8)CN(C8CCC(=O)NC8=O)C9=O)CC7)CC6)CC5)nc4c3F)c12 (stereo not shown) [Compound 80] | < 100 nM | < 100 nM | > 50% | – | 100 to 1000 nM | 100 to 1000 nM | > 50% | – | –
C#Cc1c(F)ccc2cc(O)cc(-c3ncc4c(N5CCN(C(=O)CC#N)[C@@H](CC#N)C5)nc(OCC5(CN6CCN(CC7CCN(c8ccc9c(c8)CN(C8CCC(=O)NC8=O)C9=O)CC7)CC6)CC5)nc4c3F)c12 (stereo partly drawn) [Compound 103, 3-((2S)-2-(cyanomethyl)-4-(2-((1-((4-((1-(2-(2,6-dioxopiperidin-3-yl)-1-oxoisoindolin-5-yl)piperidin-4-yl)methyl)piperazin-1-yl)methyl)cyclopropyl)methoxy)-7-(8-ethynyl-7-fluoro-3-hydroxynaphthalen-1-yl)-8-fluoropyrido[4,3-d]pyrimidin-4-yl)piperazin-1-yl)-3-oxopropanenitrile] | > 1000 nM | > 1000 nM | 10 to 50% | > 1000 nM | > 1000 nM | > 1000 nM | > 50% | > 1000 nM | > 1000 nM
C#Cc1c(F)ccc2cc(O)cc(-c3ncc4c(N5CCN(C(=O)C(=C)F)[C@@H](CC#N)C5)nc(OCC5(CN6CCN(CC7CCN(c8ccc9c(c8)CN(C8CCC(=O)NC8=O)C9=O)CC7)CC6)CC5)nc4c3F)c12 (stereo partly shown) [Compound 105] | – | < 100 nM | > 50% | > 1000 nM | < 100 nM | – | – | – | –
C#Cc1c(F)ccc2cc(O)cc(-c3ncc4c(N5CC6CCC(C5)N6C(=O)C5(C#N)CC5)nc(OCC5(CN6CCN(CC7CCN(c8ccc9c(c8)CN(C8CCC(=O)NC8=O)C9=O)CC7)CC6)CC5)nc4c3F)c12 (stereo not shown) [Compound 107] | > 1000 nM | 100 to 1000 nM | > 50% | 100 to 1000 nM | 100 to 1000 nM | < 100 nM | > 50% | 100 to 1000 nM | > 1000 nM
C#Cc1c(F)ccc2cc(O)cc(-c3ncc4c(N5CC6CCC(C5)N6C(=O)C(C)C#N)nc(OCC5(CN6CCN(CC7CCN(c8ccc9c(c8)CN(C8CCC(=O)NC8=O)C9=O)CC7)CC6)CC5)nc4c3F)c12 (stereo not shown) [Compound 108] | < 100 nM | < 100 nM | > 50% | 100 to 1000 nM | < 100 nM | < 100 nM | > 50% | 100 to 1000 nM | 100 to 1000 nM
C#Cc1c(F)ccc2cc(O)cc(-c3ncc4c(N5CC6CCC(C5)N6C(=O)NC(C)(C)C)nc(OCC5(CN6CCN(CC7CCN(c8ccc9c(c8)CN(C8CCC(=O)NC8=O)C9=O)CC7)CC6)CC5)nc4c3F)c12 (stereo not shown) [Compound 118] | > 1000 nM | – | – | 100 to 1000 nM | 100 to 1000 nM | – | – | < 100 nM | 100 to 1000 nM
C#Cc1c(F)ccc2cc(O)cc(-c3ncc4c(N5CC6CCC(C5)N6C(=O)/C(C#N)=C/C5CC5)nc(OCC5(CN6CCN(CC7CCN(c8ccc9c(c8)CN(C8CCC(=O)NC8=O)C9=O)CC7)CC6)CC5)nc4c3F)c12 (stereo not shown) [Compound 124] | > 1000 nM | – | – | > 1000 nM | < 100 nM | – | – | 100 to 1000 nM | 100 to 1000 nM

Now from value to molecule:

IC50 [1] | DC50 [2] | Dmax [2] | IC50 [3] | IC50 [4] | DC50 [5] | Dmax [5] | IC50 [6] | IC50 [7] | SMILES
100 to 1000 nM | > 1000 nM | 10 to 50% | 100 to 1000 nM | 100 to 1000 nM | < 100 nM | > 50% | 100 to 1000 nM | > 1000 nM | C#Cc1c(F)ccc2cc(O)cc(-c3nc(OC)c4c(N5CC6CCC(C5)N6C(=O)CC#N)nc(OCC5(CN6CCN(CC7CCN(c8ccc9c(c8)CN(C8CCC(=O)NC8=O)C9=O)CC7)CC6)CC5)nc4c3F)c12 (stereo not shown) [Compound 102]
> 1000 nM | > 1000 nM | 10 to 50% | < 100 nM | > 1000 nM | > 1000 nM | 10 to 50% | 100 to 1000 nM | > 1000 nM | C#Cc1c(F)ccc2cc(O)cc(-c3ncc4c(N5CC6CCC(C5)N6C(=O)C(C)(C)C#N)nc(OCC5(CN6CCN(CC7CCN(c8ccc9c(c8)CN(C8CCC(=O)NC8=O)C9=O)CC7)CC6)CC5)nc4c3F)c12 (stereo not shown) [Compound 106]
100 to 1000 nM | – | – | > 1000 nM | < 100 nM | < 100 nM | > 50% | 100 to 1000 nM | 100 to 1000 nM | C#Cc1c(F)ccc2cc(O)cc(-c3ncc4c(N5CC6CCC(C5)N6C(=O)[C@@H](C)C#N)nc(OCC5(CN6CCN(CC7CCN(c8ccc9c(c8)CN(C8CCC(=O)NC8=O)C9=O)CC7)CC6)CC5)nc4c3F)c12 (stereo partly shown) [Compound 109]
< 100 nM | < 100 nM | > 50% | 100 to 1000 nM | < 100 nM | < 100 nM | > 50% | < 100 nM | < 100 nM | O=CO.[2H]C([2H])([2H])Oc1nc(-c2cc(O)cc3ccc(F)c(C#C)c23)c(F)c2nc(OCC3(CN4CCN(CC5CCN(c6ccc7c(c6)CN(C6CCC(=O)NC6=O)C7=O)CC5)CC4)CC3)nc(N3CC4CCC(C3)N4C(=O)CCC#N)c12 (stereo not shown) [Compound 114]
100 to 1000 nM | – | – | 100 to 1000 nM | 100 to 1000 nM | – | – | 100 to 1000 nM | 100 to 1000 nM | [2H]C([2H])([2H])Oc1nc(-c2cc(O)cc3ccc(F)c(C#C)c23)c(F)c2nc(OCC3(CN4CCN(CC5CCN(c6ccc(NC7CCC(=O)NC7=O)cc6)CC5)CC4)CC3)nc(N3CC4CCC(C3)N4C(=O)CC#N)c12 (stereo not shown) [Compound 119]
> 1000 nM | – | – | > 1000 nM | < 100 nM | – | – | 100 to 1000 nM | > 1000 nM | O=CO.[2H]C([2H])([2H])Oc1nc(-c2cc(O)cc3ccc(F)c(C#C)c23)c(F)c2nc(OCC3(CN4CCN(CC5CCN(c6ccc7c(c6)CN(C6CCC(=O)NC6=O)C7=O)CC5)CC4)CC3)nc(N3CC4CCC(C3)N4C(=O)C(C#N)CC(F)(F)F)c12 (stereo not shown) [Compound 121]
100 to 1000 nM | – | – | > 1000 nM | < 100 nM | – | – | < 100 nM | < 100 nM | C#Cc1c(F)ccc2cc(O)cc(-c3nc(OC)c4c(N5CC6CCC(C5)N6C(=O)NCC#N)nc(OCC5(CN6CCN(CC7CCN(c8ccc9c(c8)CN(C8CCC(=O)NC8=O)C9=O)CC7)CC6)CC5)nc4c3F)c12 (stereo not shown) [Compound 122]
< 100 nM | – | – | > 1000 nM | < 100 nM | – | – | < 100 nM | < 100 nM | C#Cc1c(F)ccc2cc(O)cc(-c3nc(OC)c4c(N5CC6CCC(C5)N6C(=O)NCC(F)(F)F)nc(OCC5(CN6CCN(CC7CCN(c8ccc9c(c8)CN(C8CCC(=O)NC8=O)C9=O)CC7)CC6)CC5)nc4c3F)c12 (stereo not shown) [Compound 123]

Reference: patent US20260325654A1, “METHODS AND COMPOSITIONS FOR TARGETED PROTEIN DEGRADATION” (Ranok Therapeutics (Hangzhou) Co. Ltd., priority 2023, published 2026)
